Data from patent US20160000849A1, “COMPOSITION FOR REMEDYING OR TREATING RHEUMATOID ARTHRITIS AND OSTEOARTHRITIS” (HANPOONG PHARM & FOODS CO., LTD., priority 2013, published 2016).

Tested on: normal 293T cells, rat chondrocytes and human chondrocytes (HTB-94)
Protocol: The stabilities of glucosamine-HCl, glucosamine-sulfate, celecoxib and HPL-1 were analyzed by an MTT assay using normal 293T cells, rat chondrocytes and human chondrocytes (HTB-94).

SMILES: Cc1ccc(-c2cc(C(F)(F)F)nn2-c2ccc(S(N)(=O)=O)cc2)cc1 [celecoxib]
- concentration at which cytotoxicity was observed (human, rat): ≥ 10000 ng/mL

SMILES: Cl.N[C@H]1C(O)O[C@H](CO)[C@@H](O)[C@@H]1O (stereo partly drawn) [glucosamine-HCl]
- cytotoxicity: no cytotoxicity was observed

SMILES: N[C@H]1C(O)O[C@H](CO)[C@@H](O)[C@@H]1O.O=S(=O)(O)O (stereo partly drawn) [glucosamine-sulfate]
- cytotoxicity: no cytotoxicity was observed
